What was measured:
HiBit-BRM fusion protein = target: T1, HiBit-BRM fusion protein (Homo sapiens, UniProt P51531); assay: HiBiT-BRM cell-based degradation assay (Nano-Glo HiBiT Lytic Detection, 24 h); settings: stable HeLa cell line expressing HiBiT-BRM; for DC50: read-out: BRM HiBit Degradation IC50
T1 construct: expressed in transfected cells
How it was run: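 A stable HeLa line expressing HiBiT-BRM was treated for 24 h with compound in a 10-point, 3-fold series (30 μM final top dose). Remaining HiBiT-BRM was read by lytic LgBiT complementation luminescence. % degradation was normalised to DMSO (high control) and 2 μM reference BRM/BRG1 degrader (low control).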

[1] = target: T2, HiBit-BRG1 fusion protein (Homo sapiens, UniProt P51532); assay: HiBiT-BRG1 cell-based degradation assay (Nano-Glo HiBiT Lytic Detection, 24 h); settings: stable HeLa cell line expressing HiBit-BRG1 and LgBit; for Dmax: read-out: BRG1 HiBit Degradation Maximum (%); for DC50: read-out: BRMG1 HiBit Degradation IC50
T2 construct: expressed in transfected cells
T2 sequence (P51532 whole entry, the tested form may be a part): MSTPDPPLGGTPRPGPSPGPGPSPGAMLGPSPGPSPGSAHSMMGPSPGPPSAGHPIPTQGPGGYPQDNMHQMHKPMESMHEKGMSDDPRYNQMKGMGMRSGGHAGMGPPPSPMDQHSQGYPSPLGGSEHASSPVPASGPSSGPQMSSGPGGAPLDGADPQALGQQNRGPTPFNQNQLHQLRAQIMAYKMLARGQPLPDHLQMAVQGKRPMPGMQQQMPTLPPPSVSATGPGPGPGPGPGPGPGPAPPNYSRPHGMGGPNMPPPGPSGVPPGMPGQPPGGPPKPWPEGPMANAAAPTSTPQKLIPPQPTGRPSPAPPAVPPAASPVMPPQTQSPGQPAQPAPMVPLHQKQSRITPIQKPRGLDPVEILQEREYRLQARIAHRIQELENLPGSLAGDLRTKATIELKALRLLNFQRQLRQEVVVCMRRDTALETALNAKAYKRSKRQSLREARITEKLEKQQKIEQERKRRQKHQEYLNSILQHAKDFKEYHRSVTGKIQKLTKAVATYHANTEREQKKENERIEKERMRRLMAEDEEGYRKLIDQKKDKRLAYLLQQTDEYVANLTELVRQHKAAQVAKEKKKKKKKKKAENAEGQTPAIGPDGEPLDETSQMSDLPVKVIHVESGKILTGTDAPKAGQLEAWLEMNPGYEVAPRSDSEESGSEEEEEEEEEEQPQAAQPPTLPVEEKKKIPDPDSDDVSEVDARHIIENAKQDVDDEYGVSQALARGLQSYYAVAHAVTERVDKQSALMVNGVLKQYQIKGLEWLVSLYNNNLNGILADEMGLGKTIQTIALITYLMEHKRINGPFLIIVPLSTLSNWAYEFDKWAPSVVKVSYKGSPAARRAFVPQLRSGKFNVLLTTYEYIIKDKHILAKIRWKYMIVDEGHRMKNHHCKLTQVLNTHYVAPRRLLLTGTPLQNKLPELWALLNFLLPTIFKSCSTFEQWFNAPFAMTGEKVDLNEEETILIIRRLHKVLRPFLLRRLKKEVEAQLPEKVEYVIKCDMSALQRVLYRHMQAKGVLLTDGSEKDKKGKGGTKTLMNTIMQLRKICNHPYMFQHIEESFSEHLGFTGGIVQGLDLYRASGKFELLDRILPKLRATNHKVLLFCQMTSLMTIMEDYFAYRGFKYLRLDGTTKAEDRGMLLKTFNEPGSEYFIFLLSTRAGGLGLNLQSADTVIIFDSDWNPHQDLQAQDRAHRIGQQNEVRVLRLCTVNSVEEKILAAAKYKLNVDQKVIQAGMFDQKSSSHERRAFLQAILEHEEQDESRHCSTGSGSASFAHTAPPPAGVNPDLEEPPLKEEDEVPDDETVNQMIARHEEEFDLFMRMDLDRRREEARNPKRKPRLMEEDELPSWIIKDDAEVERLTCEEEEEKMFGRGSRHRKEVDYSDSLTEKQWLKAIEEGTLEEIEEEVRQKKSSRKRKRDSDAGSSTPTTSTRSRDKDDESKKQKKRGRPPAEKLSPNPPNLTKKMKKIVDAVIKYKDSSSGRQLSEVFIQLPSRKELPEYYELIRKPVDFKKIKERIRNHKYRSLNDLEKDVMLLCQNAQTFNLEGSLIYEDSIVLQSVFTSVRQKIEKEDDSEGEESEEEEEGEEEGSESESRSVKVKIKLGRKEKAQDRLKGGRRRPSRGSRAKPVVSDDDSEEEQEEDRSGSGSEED
How it was run: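 HeLa cells stably expressing HiBit-BRG1 and LgBit, treated 24 h with 3-fold dilutions (10 points, duplicate, 30 μM final top dose). Luminescence read after Nano-Glo HiBiT lytic reagent; % degradation scaled between DMSO (high) and 2 μM reference BRM/BRG1 degrader (low control).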

T1 sequence (P51531 whole entry, the tested form may be a part): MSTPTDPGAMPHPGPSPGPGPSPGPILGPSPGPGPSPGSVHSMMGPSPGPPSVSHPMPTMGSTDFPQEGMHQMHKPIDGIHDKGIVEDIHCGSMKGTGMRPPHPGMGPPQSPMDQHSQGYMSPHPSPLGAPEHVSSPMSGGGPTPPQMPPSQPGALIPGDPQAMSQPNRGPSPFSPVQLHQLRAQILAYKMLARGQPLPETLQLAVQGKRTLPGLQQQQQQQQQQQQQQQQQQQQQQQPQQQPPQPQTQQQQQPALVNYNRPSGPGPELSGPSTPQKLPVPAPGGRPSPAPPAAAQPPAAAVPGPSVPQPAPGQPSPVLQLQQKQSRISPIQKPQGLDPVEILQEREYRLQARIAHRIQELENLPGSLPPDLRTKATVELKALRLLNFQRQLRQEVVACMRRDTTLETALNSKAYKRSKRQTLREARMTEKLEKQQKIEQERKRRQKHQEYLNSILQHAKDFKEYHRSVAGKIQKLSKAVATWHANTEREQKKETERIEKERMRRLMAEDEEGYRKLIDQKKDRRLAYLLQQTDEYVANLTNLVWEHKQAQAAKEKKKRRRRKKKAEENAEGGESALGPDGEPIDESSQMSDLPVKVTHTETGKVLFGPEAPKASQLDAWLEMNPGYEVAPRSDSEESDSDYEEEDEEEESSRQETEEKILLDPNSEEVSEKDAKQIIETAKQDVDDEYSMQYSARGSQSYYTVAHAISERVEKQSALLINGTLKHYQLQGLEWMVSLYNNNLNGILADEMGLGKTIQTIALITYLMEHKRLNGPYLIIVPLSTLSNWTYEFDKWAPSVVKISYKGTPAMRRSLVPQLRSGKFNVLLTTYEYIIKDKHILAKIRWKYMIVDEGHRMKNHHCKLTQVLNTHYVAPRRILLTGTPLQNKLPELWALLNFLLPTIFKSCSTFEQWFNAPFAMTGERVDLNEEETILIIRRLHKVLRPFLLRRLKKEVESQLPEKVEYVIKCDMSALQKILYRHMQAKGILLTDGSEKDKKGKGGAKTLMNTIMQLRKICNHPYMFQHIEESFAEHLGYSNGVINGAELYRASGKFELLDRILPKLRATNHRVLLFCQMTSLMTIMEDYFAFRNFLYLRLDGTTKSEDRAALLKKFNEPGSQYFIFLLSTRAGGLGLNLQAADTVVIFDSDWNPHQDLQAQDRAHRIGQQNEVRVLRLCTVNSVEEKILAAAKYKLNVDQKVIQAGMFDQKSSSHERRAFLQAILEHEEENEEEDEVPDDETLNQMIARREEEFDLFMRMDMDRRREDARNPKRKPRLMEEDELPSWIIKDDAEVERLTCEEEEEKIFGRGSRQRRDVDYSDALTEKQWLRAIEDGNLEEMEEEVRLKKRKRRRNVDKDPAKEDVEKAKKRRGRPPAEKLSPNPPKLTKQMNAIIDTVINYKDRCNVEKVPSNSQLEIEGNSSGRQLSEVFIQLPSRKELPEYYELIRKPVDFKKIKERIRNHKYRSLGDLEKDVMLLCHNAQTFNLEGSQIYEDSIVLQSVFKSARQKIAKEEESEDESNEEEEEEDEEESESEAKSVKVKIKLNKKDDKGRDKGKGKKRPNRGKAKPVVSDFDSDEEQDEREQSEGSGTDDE

DC50 (HiBit-BRM fusion protein) [nM] | Dmax [1] [%] | DC50 [1] [nM] | Compound | BRM HiBit Degradation Maximum (%) (HiBit-BRM fusion protein)
< 10 | < 50 |  | Cc1ncsc1-c1ccc([C@H](C)NC(=O)[C@@H]2C[C@@H](O)CN2C(=O)[C@@H](c2cc(-c3ccc(N4CCC(c5sc6nnc(-c7ccccc7O)cc6c5C)CC4)c(F)c3)no2)C(C)C)cc1 [Compound 103, (2S,4R)-1-((R)-2-(3-(3-fluoro-4-(4-(3-(2-hydroxyphenyl)-5-methylthieno[2,3-c]pyridazin-6-yl)piperidin-1-yl)phenyl)isoxazol-5-yl)-3-methylbutanoyl)-4-hydroxy-N-((S)-1-(4-(4-methylthiazol-5-yl)phenyl)ethyl)pyrrolidine-2-carboxamide] | A (“A” indicates maximum degradation ≥75%)
< 10 | > 50 | > 10 | Cc1ncsc1-c1ccc([C@H](C)NC(=O)[C@@H]2C[C@@H](O)CN2C(=O)[C@@H](c2cc(C3CCN(c4cnc(N5CCC(c6sc7nnc(-c8ccccc8O)cc7c6C)CC5)nc4)CC3)no2)C(C)C)cc1 [Compound 100, (2S,4R)-4-hydroxy-1-[(2R)-2-{3-[1-(2-{4-[3-(2-hydroxyphenyl)-5-methylthieno[2,3-c]pyridazin-6-yl]piperidin-1-yl}pyrimidin-5-yl)piperidin-4-yl]-1,2-oxazol-5-yl}-3-methylbutanoyl]-N-[(1S)-1-[4-(4-methyl-1,3-thiazol-5-yl)phenyl]ethyl]pyrrolidine-2-carboxamide] | A (“A” indicates maximum degradation ≥75%)
< 10 | > 50 | > 10 | Cc1ncsc1-c1ccc([C@H](C)NC(=O)[C@@H]2C[C@@H](O)CN2C(=O)[C@@H](c2cc(-c3cnc(N4CC[C@@H](c5cc6nnc(-c7ccccc7O)cc6s5)C4)nc3)no2)C(C)C)cc1 [Compound 82, (2S,4R)-4-hydroxy-1-((R)-2-(3-(2-((R)-3-(3-(2-hydroxyphenyl)thieno[3,2-c]pyridazin-6-yl)pyrrolidin-1-yl)pyrimidin-5-yl)isoxazol-5-yl)-3-methylbutanoyl)-N-((S)-1-(4-(4-methylthiazol-5-yl)phenyl)ethyl)pyrrolidine-2-carboxamide] | A (“A” indicates maximum degradation ≥75%)
> 10 | < 50 | > 1000 | Cc1ncsc1-c1ccc([C@H](C)NC(=O)[C@@H]2C[C@@H](O)CN2C(=O)[C@@H](c2cc(-c3ccc(N4CC(c5sc6nnc(-c7ccccc7O)cc6c5C)C4)nn3)no2)C(C)C)cc1 [Compound 50, (2S,4R)-4-hydroxy-1-((R)-2-(3-(6-(3-(3-(2-hydroxyphenyl)-5-methylthieno[2,3-c]pyridazin-6-yl)azetidin-1-yl)pyridazin-3-yl)isoxazol-5-yl)-3-methylbutanoyl)-N-((S)-1-(4-(4-methylthiazol-5-yl)phenyl)ethyl)pyrrolidine-2-carboxamide] | A (“A” indicates maximum degradation ≥75%)
< 10 | < 50 | > 1000 | Cc1ncsc1-c1ccc([C@H](C)NC(=O)[C@@H]2C[C@@H](O)CN2C(=O)[C@@H](c2cc(-c3cnc(N4C[C@H]5C[C@@H]4C[C@@H]5c4cc5cc(-c6ccccc6O)nnc5s4)nc3)no2)C(C)C)cc1 [Compound 22, (2S,4R)-4-hydroxy-1-((R)-2-(3-(2-((1R,4S,5S)-5-(3-(2-hydroxyphenyl)thieno[2,3-c]pyridazin-6-yl)-2-azabicyclo[2.2.1]heptan-2-yl)pyrimidin-5-yl)isoxazol-5-yl)-3-methylbutanoyl)-N-((S)-1-(4-(4-methylthiazol-5-yl)phenyl)ethyl)pyrrolidine-2-carboxamide] | A (“A” indicates maximum degradation ≥75%)
> 10 | < 50 |  | Cc1cc(-c2cc([C@H](C(=O)N3C[C@H](O)C[C@H]3C(=O)N[C@@H](C)c3ccc(-c4scnc4C)cc3)C(C)C)on2)cnc1N1CC[C@@H](c2sc3nnc(-c4ccccc4O)cc3c2C)C1 [Compound 101, (2S,4R)-4-hydroxy-1-((R)-2-(3-(6-((R)-3-(3-(2-hydroxyphenyl)-5-methylthieno[2,3-c]pyridazin-6-yl)pyrrolidin-1-yl)-5-methylpyridin-3-yl)isoxazol-5-yl)-3-methylbutanoyl)-N-((S)-1-(4-(4-methylthiazol-5-yl)phenyl)ethyl)pyrrolidine-2-carboxamide] | A (“A” indicates maximum degradation ≥75%)
> 1000 | < 50 | > 1000 | Cc1ncsc1-c1ccc([C@H](C)NC(=O)[C@@H]2C[C@@H](O)CN2C(=O)[C@@H](c2cc(-c3ccnc(N4CC[C@@H](c5sc6nnc(-c7ccccc7O)cc6c5C)C4)n3)no2)C(C)C)cc1 [Compound 7, (2S,4R)-4-hydroxy-1-((R)-2-(3-(2-((R)-3-(3-(2-hydroxyphenyl)-5-methylthieno[2,3-c]pyridazin-6-yl)pyrrolidin-1-yl)pyrimidin-4-yl)isoxazol-5-yl)-3-methylbutanoyl)-N-((S)-1-(4-(4-methylthiazol-5-yl)phenyl)ethyl)pyrrolidine-2-carboxamide] | C (“C” indicates maximum degradation <50%)
< 10 | < 50 |  | Cc1ncsc1-c1ccc([C@H](C)NC(=O)[C@@H]2C[C@@H](O)CN2C(=O)[C@@H](c2cc(N3CC4(C3)CN(c3cc5cc(-c6ccccc6O)nnc5s3)C4)no2)C(C)C)cc1 [Compound 68, (2S,4R)-4-hydroxy-1-((R)-2-(3-(6-(3-(2-hydroxyphenyl)thieno[2,3-c]pyridazin-6-yl)-2,6-diazaspiro[3.3]heptan-2-yl)isoxazol-5-yl)-3-methylbutanoyl)-N-((S)-1-(4-(4-methylthiazol-5-yl)phenyl)ethyl)pyrrolidine-2-carboxamide] | A (“A” indicates maximum degradation ≥75%)
< 10 | < 50 | > 1000 | Cc1ncsc1-c1ccc([C@H](C)NC(=O)[C@@H]2C[C@@H](O)CN2C(=O)[C@@H](c2cc(-c3ccc(N4CCC(c5sc6nnc(-c7ccccc7O)cc6c5C)CC4)cn3)no2)C(C)C)cc1 [Compound 34, (2S,4R)-4-hydroxy-1-((R)-2-(3-(5-(4-(3-(2-hydroxyphenyl)-5-methylthieno[2,3-c]pyridazin-6-yl)piperidin-1-yl)pyridin-2-yl)isoxazol-5-yl)-3-methylbutanoyl)-N-((S)-1-(4-(4-methylthiazol-5-yl)phenyl)ethyl)pyrrolidine-2-carboxamide] | A (“A” indicates maximum degradation ≥75%)
< 10 | < 50 |  | COc1cc(-c2cc([C@H](C(=O)N3C[C@H](O)C[C@H]3C(=O)N[C@@H](C)c3ccc(-c4scnc4C)cc3)C(C)C)on2)cnc1N1CCC(c2sc3nnc(-c4ccccc4O)cc3c2C)CC1 [Compound 90, (2S,4R)-4-hydroxy-1-((R)-2-(3-(6-(4-(3-(2-hydroxyphenyl)-5-methylthieno[2,3-c]pyridazin-6-yl)piperidin-1-yl)-5-methoxypyridin-3-yl)isoxazol-5-yl)-3-methylbutanoyl)-N-((S)-1-(4-(4-methylthiazol-5-yl)phenyl)ethyl)pyrrolidine-2-carboxamide] | A (“A” indicates maximum degradation ≥75%)
< 10 | < 50 | > 1000 | Cc1cc(-c2cc([C@H](C(=O)N3C[C@H](O)C[C@H]3C(=O)N[C@@H](C)c3ccc(-c4scnc4C)cc3)C(C)C)on2)cnc1N1CCC(c2sc3nnc(-c4ccccc4O)cc3c2C)CC1 [Compound 43, (2S,4R)-4-hydroxy-1-((R)-2-(3-(6-(4-(3-(2-hydroxyphenyl)-5-methylthieno[2,3-c]pyridazin-6-yl)piperidin-1-yl)-5-methylpyridin-3-yl)isoxazol-5-yl)-3-methylbutanoyl)-N-((S)-1-(4-(4-methylthiazol-5-yl)phenyl)ethyl)pyrrolidine-2-carboxamide] | A (“A” indicates maximum degradation ≥75%)
> 10 | < 50 |  | Cc1ncsc1-c1ccc([C@H](C)NC(=O)[C@@H]2C[C@@H](O)CN2C(=O)[C@@H](c2cc(N3CCN(c4sc5nnc(-c6ccccc6O)cc5c4C)CC3)no2)C(C)C)cc1 [Compound 80, (2S,4R)-4-hydroxy-1-((R)-2-(3-(4-(3-(2-hydroxyphenyl)-5-methylthieno[2,3-c]pyridazin-6-yl)piperazin-1-yl)isoxazol-5-yl)-3-methylbutanoyl)-N-((S)-1-(4-(4-methylthiazol-5-yl)phenyl)ethyl)pyrrolidine-2-carboxamide] | A (“A” indicates maximum degradation ≥75%)

Compound | DC50 (HiBit-BRM fusion protein) [nM] | Dmax [1] [%] | DC50 [1] [nM] | BRM HiBit Degradation Maximum (%) (HiBit-BRM fusion protein)
Cc1ncsc1-c1ccc([C@H](C)NC(=O)[C@@H]2C[C@@H](O)CN2C(=O)[C@@H](c2cc(-c3cnc(N4C[C@H]5C[C@@H](C4)[C@H]5c4cc5cc(-c6ccccc6O)nnc5s4)nc3)no2)C(C)C)cc1 [Compound 15, (2S,4R)-4-hydroxy-1-((R)-2-(3-(2-((1R,5S,6S)-6-(3-(2-hydroxyphenyl)thieno[2,3-c]pyridazin-6-yl)-3-azabicyclo[3.1.1]heptan-3-yl)pyrimidin-5-yl)isoxazol-5-yl)-3-methylbutanoyl)-N-((S)-1-(4-(4-methylthiazol-5-yl)phenyl)ethyl)pyrrolidine-2-carboxamide] | > 100 | < 50 | > 1000 | B (“B” indicates maximum degradation ≥50%)

Source: patent US20250304596A1, “PYRAZINE DERIVATIVES AND USES THEREOF” (FOGHORN THERAPEUTICS INC., priority 2022, published 2025)
